From patent EP4759812A1 (Guangzhou Lupeng Pharmaceutical Co., Ltd., priority 2023, dated 2025)

Experiments:
Format in all cases: physicochemical
[1] = Influencing factor stability: high-humidity test; conditions: Temperature 25°C, relative humidity 92.5±5%; for Purity: HPLC, starting purity: Crystal form VI 99.32%, Amorphous form 98.80%, Crystal form XIII 99.01%; for Crystal form: XRPD
Method: (§1) The crystal form results under different conditions were identified by XRPD analysis, and the purity results under different conditions were identified by HPLC analysis.
(§2) The above samples were then taken on days 5, 10, 15, and 30, respectively. Their crystal forms were tested by adopting X-ray powder diffraction (XRPD), and the sample purities were tested by adopting HPLC. […]

[2] = Influencing factor stability: light exposure test; conditions: Visible light 4500 Lux ± 500 Lux; for Crystal form: ultraviolet light 1.7 W*h/m^2 (25°C, RH 60%±5%), XRPD; for Purity: HPLC, starting purity: Crystal form VI 99.32%, Amorphous form 98.80%, Crystal form XIII 99.01%
Method: as §1, §2

[3] = Stability test in pure water and buffer solution (suspension, XRPD); conditions: 25°C, stirred 24 h, solid by XRPD
Method: The suspensions were stirred at 25°C for 24 h, and filtered to obtain the solids. Samples were taken for XRPD measurement. […]

[4] = Influencing factor stability: high-temperature test; conditions: Temperature 60°C; for Purity: HPLC, starting purity: Crystal form VI 99.32%, Amorphous form 98.80%, Crystal form XIII 99.01%; for Crystal form: XRPD
Method: as §1, §2

[5] = Dynamic vapor sorption (DVS) experiment; conditions: for Adsorption weight gain (80% RH) / Adsorption weight gain (95% RH): DVS; for Hygroscopicity: class per Chinese Pharmacopoeia 2010 guidance (25±0.2°C, 80% relative humidity)
[6] = Morphological comparison under polarizing light microscope; conditions: for dispersibility and flowability / agglomeration and caking: judged from polarizing light microscope images; for crystal morphology: polarizing light microscope
[7] = ultraviolet light 1.7 W*h/m^2, 5 days
[8] = ultraviolet light 1.7 W*h/m^2, 10 days
[9] = ultraviolet light 1.7 W*h/m^2, 15 days
[10] = ultraviolet light 1.7 W*h/m^2, 30 days

SMILES	Purity ([1]; 5 days)	Crystal form ([1]; 5 days)	Purity ([1]; 10 days)	Crystal form ([1]; 10 days)	Purity ([1]; 15 days)	Crystal form ([1]; 15 days)	Purity ([1]; 30 days)	Crystal form ([1]; 30 days)	Crystal form ([2]; 5 days)	Crystal form ([2]; 10 days)	Crystal form ([2]; 15 days)	Crystal form ([2]; 30 days)	Purity [2, 7]	Purity [2, 8]	Purity [2, 9]	Purity [2, 10]	Suspension result ([3]; Pure water)	Suspension result ([3]; pH 4.5 buffer solution)	Suspension result ([3]; pH 6.8 buffer solution)	Purity ([4]; 5 days)	other results
C=CC(=O)Nc1cc(Nc2nc(-c3ccnc(N4CCn5c(cc6c5CC(C)(C)C6)C4=O)c3CO)cn(C)c2=O)ccc1N1CCN(C2CCOCC2)C[C@@H]1C [Amorphous form, (S)-N-(5-((6-(2-(7,7-dimethyl-1-oxo-1,3,4,6,7,8-hexahydro-2H-cyclopenta[4,5]pyrrolo[1,2-a]pyrazin-2-yl)-3-(hydroxymethyl)pyridin-4-yl)-4-methyl-3-oxo-3,4-dihydropyrazin-2-yl)amino)-2-(2-methyl-4-(tetrahydro-2H-pyran-4-yl)piperazin-1-yl)phenyl)acrylamide]	98.72%	Amorphous form	98.50%	Amorphous form	98.38%	Amorphous form	98.21%	Amorphous form	Amorphous form	Amorphous form	Amorphous form	Amorphous form	98.46%	97.98%	97.29%	96.55%	Transform into other crystal forms	Transform into other crystal forms	Transform into other crystal forms	98.61%	Crystal form ([4]; 5 days): Amorphous form; Purity ([4]; 10 days): 98.44%; Crystal form ([4]; 10 days): Amorphous form; Purity ([4]; 15 days): 98.39%; Crystal form ([4]; 15 days): Amorphous form; Purity ([4]; 30 days): 97.88%; Crystal form ([4]; 30 days): Amorphous form; Adsorption weight gain (80% RH) [5]: 4.55%; Adsorption weight gain (80% RH) ([5]; listed as amorphous form): about 4.55%; Adsorption weight gain (95% RH) [5]: 6.76%; Adsorption weight gain (95% RH) ([5]; listed as amorphous form): about 6.76%; Hygroscopicity [5]: Hygroscopic (hygroscopic weight gain is less than 15% but not less than 2%); Hygroscopicity ([5]; listed as amorphous form): hygroscopic; dispersibility and flowability / agglomeration and caking [6]: significant agglomeration and caking; crystal morphology [6]: irregular glassy state
C=CC(=O)Nc1cc(Nc2nc(-c3ccnc(N4CCn5c(cc6c5CC(C)(C)C6)C4=O)c3CO)cn(C)c2=O)ccc1N1CCN(C2CCOCC2)C[C@@H]1C [Crystal form XIII, (S)-N-(5-((6-(2-(7,7-dimethyl-1-oxo-1,3,4,6,7,8-hexahydro-2H-cyclopenta[4,5]pyrrolo[1,2-a]pyrazin-2-yl)-3-(hydroxymethyl)pyridin-4-yl)-4-methyl-3-oxo-3,4-dihydropyrazin-2-yl)amino)-2-(2-methyl-4-(tetrahydro-2H-pyran-4-yl)piperazin-1-yl)phenyl)acrylamide]	98.92%	Crystal form XIII	98.86%	Crystal form XIII	98.81%	Crystal form XIII	98.77%	Crystal form XIII	Crystal form XIII	Crystal form XIII	Crystal form XIII	Crystal form XIII	98.65%	98.32%	97.76%	97.15%	Transform into other crystal forms	Transform into other crystal forms	Transform into other crystal forms	98.79%	Crystal form ([4]; 5 days): Transform into other crystal forms; Purity ([4]; 10 days): 98.54%; Crystal form ([4]; 10 days): Transform into other crystal forms; Purity ([4]; 15 days): 98.20%; Crystal form ([4]; 15 days): Transform into other crystal forms; Purity ([4]; 30 days): 97.85%; Crystal form ([4]; 30 days): Transform into other crystal forms; Adsorption weight gain (80% RH) [5]: 6.53%; Adsorption weight gain (80% RH) ([5]; listed as crystal form XIII): about 6.53%; Adsorption weight gain (95% RH) [5]: 14.45%; Adsorption weight gain (95% RH) ([5]; listed as crystal form XIII): about 14.45%; Hygroscopicity [5]: Hygroscopic (hygroscopic weight gain is less than 15% but not less than 2%); Hygroscopicity ([5]; listed as crystal form XIII): hygroscopic; dispersibility and flowability / agglomeration and caking [6]: relatively poor flowability; crystal morphology [6]: fine
C=CC(=O)Nc1cc(Nc2nc(-c3ccnc(N4CCn5c(cc6c5CC(C)(C)C6)C4=O)c3CO)cn(C)c2=O)ccc1N1CCN(C2CCOCC2)C[C@@H]1C [Crystal form V, (S)-N-(5-((6-(2-(7,7-dimethyl-1-oxo-1,3,4,6,7,8-hexahydro-2H-cyclopenta[4,5]pyrrolo[1,2-a]pyrazin-2-yl)-3-(hydroxymethyl)pyridin-4-yl)-4-methyl-3-oxo-3,4-dihydropyrazin-2-yl)amino)-2-(2-methyl-4-(tetrahydro-2H-pyran-4-yl)piperazin-1-yl)phenyl)acrylamide]	–	–	–	–	–	–	–	–	–	–	–	–	–	–	–	–	–	Transform into other crystal forms	Transform into other crystal forms	–	–
